Data set [1] is described as follows: blockers of HIV-1 envelope-mediated cell-cell fusion – cherry-pick, dose response (AID 652057). Format: functional, cell-based.
A short description of data set [2]: viability loss in CEM21 cells – cell-based, CellTiter-Glo luminescence, cherry-picked, cytotoxicity control for viral fusion inhibitor project, dose response (AID 652042).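 Further: potency for signal decrease meaning cytotoxicity.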 Format: functional. (ATP-based viability assays read luminescence as a measure of living cells.)
The nature of data set [3]: blockers of HIV-1 ZM109 envelope-driven cell-cell fusion – HeLa effector, CEM target cells, luciferase, cherry-pick, dose response (AID 652058).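 Further: luciferase signal from HIV-1 Env mediated cell-cell fusion of effector and target cells.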 Format: functional, cell-based.
The nature of data set [4]: off-target signal loss in HeLa-CEM21 co-culture – HeLa F-luc CTL cells, cherry-picked, counter-screen for HIV-1 Env fusion inhibitor project, dose response (AID 652040).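 Further: potency for signal decrease marking cytotoxic or nonspecific inhibition.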 The class given is functional, cell-based.
The nature of data set [5]: HIV-1 AD8 envelope cell-cell fusion blockers – cherry-pick, dose response (AID 652062).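 Further: luciferase signal from cell-cell fusion driven by HIV-1 clade B AD8 Env; potency is for inhibitors of fusion seen as a drop in luminescence.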 Format: functional, cell-based.
Data set [6] addresses T1, RNA-binding protein pos-1 (Caenorhabditis elegans, UniProt G5EF15).
T1 sequence (G5EF15 whole entry): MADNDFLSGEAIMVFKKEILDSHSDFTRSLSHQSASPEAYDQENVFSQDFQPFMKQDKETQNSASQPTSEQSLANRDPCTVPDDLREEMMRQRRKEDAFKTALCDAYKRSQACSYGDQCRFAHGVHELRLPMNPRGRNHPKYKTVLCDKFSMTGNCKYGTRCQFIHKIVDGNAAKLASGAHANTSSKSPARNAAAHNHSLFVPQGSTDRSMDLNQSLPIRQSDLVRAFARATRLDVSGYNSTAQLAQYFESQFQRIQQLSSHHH
Briefly: disruptors of C. elegans POS-1 RNA interaction – biochemical, fluorescence polarization, dose response (AID 1964).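 Further: purified POS-1 fused to maltose binding protein made in E. coli; potency of compounds blocking POS-1 binding to fluorescent RNA.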 Background: Fluorescence polarisation rises when a labelled molecule tumbles more slowly, as on binding a larger partner.

Data set [7] concerns the target T2, Zinc finger protein mex-5 (Caenorhabditis elegans, UniProt Q9XUB2).
T2 sequence (Q9XUB2 whole entry): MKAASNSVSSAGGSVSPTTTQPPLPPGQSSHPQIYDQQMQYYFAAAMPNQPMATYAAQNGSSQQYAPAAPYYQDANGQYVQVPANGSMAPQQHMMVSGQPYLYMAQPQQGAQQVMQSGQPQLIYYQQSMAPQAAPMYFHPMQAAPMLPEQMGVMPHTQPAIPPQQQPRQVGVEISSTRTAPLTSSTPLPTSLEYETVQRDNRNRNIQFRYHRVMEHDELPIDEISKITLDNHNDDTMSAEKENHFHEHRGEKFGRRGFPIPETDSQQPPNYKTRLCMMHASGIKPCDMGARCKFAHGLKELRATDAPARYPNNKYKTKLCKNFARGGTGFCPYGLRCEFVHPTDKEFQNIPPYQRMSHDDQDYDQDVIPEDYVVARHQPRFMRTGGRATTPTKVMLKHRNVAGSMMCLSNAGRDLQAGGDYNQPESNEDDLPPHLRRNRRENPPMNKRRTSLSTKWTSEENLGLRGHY
Briefly: potency of MEX-5 RNA-binding blockers – biochemical, C. elegans, fluorescence polarization, dose response (AID 1960).

In data set [8] the target is T3, DNA repair and recombination protein RAD54-like (Homo sapiens, UniProt Q92698).
T3 sequence (Q92698 whole entry): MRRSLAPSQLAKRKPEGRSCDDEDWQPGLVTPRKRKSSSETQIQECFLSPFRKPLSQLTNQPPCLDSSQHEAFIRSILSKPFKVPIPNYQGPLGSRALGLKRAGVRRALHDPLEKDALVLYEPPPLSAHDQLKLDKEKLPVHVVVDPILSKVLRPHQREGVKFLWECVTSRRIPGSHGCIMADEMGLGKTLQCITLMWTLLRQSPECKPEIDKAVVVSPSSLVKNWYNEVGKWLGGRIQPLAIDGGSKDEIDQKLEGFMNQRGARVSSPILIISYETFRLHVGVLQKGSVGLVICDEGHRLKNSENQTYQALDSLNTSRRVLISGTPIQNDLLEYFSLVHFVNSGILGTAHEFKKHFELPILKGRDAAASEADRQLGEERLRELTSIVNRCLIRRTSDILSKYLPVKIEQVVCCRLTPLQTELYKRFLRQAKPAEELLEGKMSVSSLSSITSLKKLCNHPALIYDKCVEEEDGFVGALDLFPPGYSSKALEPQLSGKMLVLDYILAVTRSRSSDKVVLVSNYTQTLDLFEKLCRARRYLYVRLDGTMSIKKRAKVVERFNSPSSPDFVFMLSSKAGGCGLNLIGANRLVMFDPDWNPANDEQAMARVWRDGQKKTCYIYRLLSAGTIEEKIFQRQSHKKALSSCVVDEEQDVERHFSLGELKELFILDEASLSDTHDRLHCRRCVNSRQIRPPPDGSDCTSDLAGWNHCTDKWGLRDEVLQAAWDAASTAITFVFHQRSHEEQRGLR
Nature of the data set: RAD54 Holliday junction migration blockers – biochemical, fluorescence, cherry-picked samples, dose series, confirmation (AID 651657). Format: functional.

Data set [9] has as its target T4, DNA repair protein RAD52 homolog (Homo sapiens, UniProt P43351).
T4 sequence (P43351 whole entry): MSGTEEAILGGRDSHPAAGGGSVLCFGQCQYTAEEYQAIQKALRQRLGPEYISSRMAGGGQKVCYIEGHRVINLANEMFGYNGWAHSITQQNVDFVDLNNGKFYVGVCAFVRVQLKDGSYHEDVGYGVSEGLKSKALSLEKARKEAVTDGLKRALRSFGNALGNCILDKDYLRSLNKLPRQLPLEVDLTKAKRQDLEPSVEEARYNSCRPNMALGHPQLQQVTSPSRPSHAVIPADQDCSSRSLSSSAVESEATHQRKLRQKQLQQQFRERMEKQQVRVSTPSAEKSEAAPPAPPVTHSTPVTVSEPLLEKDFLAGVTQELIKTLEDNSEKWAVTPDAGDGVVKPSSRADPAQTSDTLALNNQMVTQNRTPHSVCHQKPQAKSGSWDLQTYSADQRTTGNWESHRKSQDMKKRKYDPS
The class given is functional, biochemical.

The target of data set [10] is T5, Cytochrome P450 1A2 (Homo sapiens, UniProt P05177).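 Further: PubChem cytochrome P450 panel assay, CYP1A2 panel member.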
T5 sequence (P05177 whole entry): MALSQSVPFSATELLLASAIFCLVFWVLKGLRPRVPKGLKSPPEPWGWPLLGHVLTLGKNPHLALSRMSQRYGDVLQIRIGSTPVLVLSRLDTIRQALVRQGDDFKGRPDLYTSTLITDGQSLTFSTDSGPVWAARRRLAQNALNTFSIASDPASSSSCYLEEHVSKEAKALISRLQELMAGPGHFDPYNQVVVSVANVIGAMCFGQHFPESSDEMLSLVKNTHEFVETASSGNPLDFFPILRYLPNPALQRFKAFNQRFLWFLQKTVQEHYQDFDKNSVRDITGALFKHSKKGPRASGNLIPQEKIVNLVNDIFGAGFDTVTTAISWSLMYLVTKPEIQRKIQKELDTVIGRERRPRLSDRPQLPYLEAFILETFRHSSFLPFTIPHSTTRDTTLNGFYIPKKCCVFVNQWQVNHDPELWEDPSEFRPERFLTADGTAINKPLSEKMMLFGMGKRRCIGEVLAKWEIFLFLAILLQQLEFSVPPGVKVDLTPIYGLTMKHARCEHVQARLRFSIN

The target of data set [11] is Cytochrome P450 2C9 (Homo sapiens, UniProt P11712).
Sequence of Cytochrome P450 2C9 (P11712 whole entry): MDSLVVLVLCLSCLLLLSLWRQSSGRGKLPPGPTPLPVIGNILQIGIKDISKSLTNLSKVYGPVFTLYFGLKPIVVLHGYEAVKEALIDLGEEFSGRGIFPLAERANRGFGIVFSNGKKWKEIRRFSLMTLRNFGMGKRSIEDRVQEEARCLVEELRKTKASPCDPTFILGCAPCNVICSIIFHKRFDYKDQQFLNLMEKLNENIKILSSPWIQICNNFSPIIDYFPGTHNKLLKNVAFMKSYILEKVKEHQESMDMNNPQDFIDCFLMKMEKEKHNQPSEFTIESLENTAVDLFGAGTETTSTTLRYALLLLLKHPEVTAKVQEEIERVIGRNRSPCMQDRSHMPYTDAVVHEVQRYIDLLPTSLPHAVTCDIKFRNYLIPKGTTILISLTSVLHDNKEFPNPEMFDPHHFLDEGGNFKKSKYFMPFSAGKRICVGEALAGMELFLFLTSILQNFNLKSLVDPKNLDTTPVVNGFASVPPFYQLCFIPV
Data set [12] has as its target Cytochrome P450 3A4 (Homo sapiens, UniProt P08684).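 Further: CYP3A4 tested as one member of a cytochrome P450 panel screen.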
Data set [13] has as its target Glucose-6-phosphate 1-dehydrogenase (Homo sapiens, UniProt P11413). Nature of the data set: inhibition of Homo sapiens G6PD, dose series – biochemical, fluorescence, selectivity assay for P. falciparum G6PD inhibitor project, dose response (AID 504792). Format: functional.
The target of data set [14] is Heat shock protein HSP 90-alpha (Homo sapiens, UniProt P07900). Format: functional, organism-based.
The target in data set [15] is T6, Probable nicotinate-nucleotide adenylyltransferase (Staphylococcus aureus (strain N315), UniProt P65502). Format: functional, Staphylococcus aureus subsp. aureus N315.
T6 sequence (P65502 whole entry): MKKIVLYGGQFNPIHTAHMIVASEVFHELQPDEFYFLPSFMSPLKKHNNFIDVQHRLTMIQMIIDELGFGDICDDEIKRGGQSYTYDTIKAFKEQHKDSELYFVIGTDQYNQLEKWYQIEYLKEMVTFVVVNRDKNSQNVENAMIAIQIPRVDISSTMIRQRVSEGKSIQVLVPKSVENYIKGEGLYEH
Data set [16] concerns the target T6, Probable nicotinate-nucleotide adenylyltransferase. The class given is functional, Staphylococcus aureus subsp. aureus N315. The note with it: read-out: IC50_Mean.
Data set [17] can be described thus: viability loss in HeLa cells – cytotoxicity control for MgcRacGAP inhibitor project, dose response (AID 624300). The class given is functional.
Data set [18] deals with T7, Rac GTPase-activating protein 1 (Homo sapiens, UniProt Q9H0H5).
T7 sequence (Q9H0H5 whole entry): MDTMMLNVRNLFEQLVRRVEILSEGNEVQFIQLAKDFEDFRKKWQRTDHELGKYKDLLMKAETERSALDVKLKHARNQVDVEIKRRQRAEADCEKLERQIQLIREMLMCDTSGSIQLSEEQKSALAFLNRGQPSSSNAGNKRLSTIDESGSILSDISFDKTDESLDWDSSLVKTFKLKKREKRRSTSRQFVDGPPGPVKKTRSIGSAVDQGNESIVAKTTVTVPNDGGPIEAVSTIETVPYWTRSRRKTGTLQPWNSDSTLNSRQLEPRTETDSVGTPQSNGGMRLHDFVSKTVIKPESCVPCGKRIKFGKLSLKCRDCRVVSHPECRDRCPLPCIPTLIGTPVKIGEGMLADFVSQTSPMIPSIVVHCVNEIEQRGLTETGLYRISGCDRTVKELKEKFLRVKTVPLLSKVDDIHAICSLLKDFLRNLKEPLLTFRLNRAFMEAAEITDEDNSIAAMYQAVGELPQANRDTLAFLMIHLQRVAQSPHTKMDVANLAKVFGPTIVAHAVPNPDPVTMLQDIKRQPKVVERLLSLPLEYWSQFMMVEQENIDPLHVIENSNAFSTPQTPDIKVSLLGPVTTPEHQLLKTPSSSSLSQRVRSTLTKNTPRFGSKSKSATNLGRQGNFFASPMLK
Briefly: blockers of MgcRacGAP-driven Rac1 GTP hydrolysis – biochemical, ADP Hunter fluorescence, primary and confirmatory, confirmation (AID 624330). Format: functional.

Data set [19] concerns the target T8, Hepatocyte nuclear factor 4-alpha (Homo sapiens, UniProt P41235).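 Further: biochemical luminescence-based dose-response counterscreen measuring inhibition of HNF4 dimerization, run alongside a screen for blockers of ABHD5–perilipin-5 interaction; split luciferase complementation of HNF4 fusion proteins in cell lysate measuring dimerization.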
T8 sequence (P41235 whole entry): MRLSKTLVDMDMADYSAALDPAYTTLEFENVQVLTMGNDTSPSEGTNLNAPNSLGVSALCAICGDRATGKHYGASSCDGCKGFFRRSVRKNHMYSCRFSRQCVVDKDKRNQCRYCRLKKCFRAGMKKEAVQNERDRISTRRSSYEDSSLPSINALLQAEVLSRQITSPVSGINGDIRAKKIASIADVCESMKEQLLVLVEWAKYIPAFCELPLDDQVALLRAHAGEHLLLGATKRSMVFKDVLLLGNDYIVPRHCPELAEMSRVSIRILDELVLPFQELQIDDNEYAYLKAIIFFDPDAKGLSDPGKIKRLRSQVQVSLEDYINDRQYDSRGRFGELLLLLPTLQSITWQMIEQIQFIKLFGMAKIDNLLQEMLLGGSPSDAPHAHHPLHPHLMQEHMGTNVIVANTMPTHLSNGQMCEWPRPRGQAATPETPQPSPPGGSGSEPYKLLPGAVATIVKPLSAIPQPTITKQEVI
The class given is functional, cell-based.

For data set [20], the system named is P388/ADR. Briefly: cells. The class given is functional. The note with it: Mus musculus.
The test system of data set [21] is SN12K1. Nature of the data set: cells. Format: functional. The note with it: Homo sapiens.
In data set [22] the test system is P388. Nature of the data set: cells. The class given is functional. The note with it: Mus musculus.

In general, AC50 refers to the concentration at which the activity in the assay is half-maximal. In general, EC50 refers to the concentration giving half of the maximal effect. One may read the CC50 as the concentration that lowers cell viability or growth by half. In general, GI50 refers to the concentration that inhibits growth by half.

Molecules are shown by their SMILES. The source made the active and inactive calls.
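Wherever IC50 Mean is given: confirmatory dose-response retesting of NadD inhibitor hits first found in an ultra-high-throughput screen.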

Sequence of Glucose-6-phosphate 1-dehydrogenase (P11413 whole entry): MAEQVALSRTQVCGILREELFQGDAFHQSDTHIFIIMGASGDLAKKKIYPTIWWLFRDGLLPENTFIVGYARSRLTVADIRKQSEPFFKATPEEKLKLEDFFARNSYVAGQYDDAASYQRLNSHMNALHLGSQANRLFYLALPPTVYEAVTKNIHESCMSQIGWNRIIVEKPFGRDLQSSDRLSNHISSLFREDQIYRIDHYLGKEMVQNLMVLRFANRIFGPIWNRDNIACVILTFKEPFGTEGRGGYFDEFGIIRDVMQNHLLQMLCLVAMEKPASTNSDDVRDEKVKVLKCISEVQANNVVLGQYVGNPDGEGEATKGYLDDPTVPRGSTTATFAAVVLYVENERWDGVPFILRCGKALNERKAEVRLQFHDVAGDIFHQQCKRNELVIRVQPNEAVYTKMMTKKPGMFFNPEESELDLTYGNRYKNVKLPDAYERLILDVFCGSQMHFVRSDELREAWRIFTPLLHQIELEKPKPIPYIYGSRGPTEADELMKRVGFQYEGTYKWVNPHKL
Sequence of Cytochrome P450 3A4 (P08684 whole entry): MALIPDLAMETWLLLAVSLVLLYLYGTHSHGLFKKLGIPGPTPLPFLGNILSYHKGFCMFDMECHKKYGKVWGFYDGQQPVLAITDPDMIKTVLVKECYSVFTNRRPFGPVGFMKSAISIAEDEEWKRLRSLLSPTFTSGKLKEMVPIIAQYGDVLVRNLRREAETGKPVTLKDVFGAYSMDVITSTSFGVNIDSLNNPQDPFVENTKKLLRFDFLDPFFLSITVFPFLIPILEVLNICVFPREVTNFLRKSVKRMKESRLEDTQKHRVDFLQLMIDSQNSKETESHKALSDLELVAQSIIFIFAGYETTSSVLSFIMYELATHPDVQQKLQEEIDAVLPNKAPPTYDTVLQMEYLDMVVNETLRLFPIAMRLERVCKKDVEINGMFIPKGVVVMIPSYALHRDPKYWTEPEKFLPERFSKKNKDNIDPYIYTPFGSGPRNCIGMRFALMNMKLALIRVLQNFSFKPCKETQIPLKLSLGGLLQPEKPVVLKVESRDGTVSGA

As for `Cc1ccc(NC(=O)c2ccc(-c3nn(C)c(=O)c4ccccc34)cc2)cc1`, the AC50 was 24.9 µM (active) in [1]; 57.8 µM (active) in [2]; 3.31 µM (active) in data set [3]; 16.8 µM (active) in data set [4]; 6.49 µM (active) in data set [5].

`C/C=C/c1ccc(OCCOCCNCc2ccccc2)c(OC)c1`: the AC50 was 3.51 µM (active) in [1]; 33.7 µM (active) in data set [2]; 5.73 µM (active) in data set [3]; 4.93 µM (active) in data set [4]; 12.2 µM (active) in [5].

For the compound `CCNC(=O)c1cc2c(=O)n3cccc(C)c3nc2n(CCc2ccccc2)c1=N`, the EC50 in [6] was 4.95 µM (inconclusive); in data set [7], 30 µM (active). In addition, the AC50 in data set [8] is 17.9 µM (active).

`CCOC(=O)c1c(NC(=O)c2ccc(S(=O)(=O)N3CCOCC3)cc2)sc2c1CCN(C)C2`: the AC50 was 15.3 µM (active) in data set [8]; 11.6 µM (active) in data set [9]; 12.6 µM (inconclusive) in [10]; 14.1 µM (inconclusive) in data set [11]; “inconclusive” in data set [12].

For `N=c1c(C(=O)NCCN2CCOCC2)cc2c(=O)n3ccccc3nc2n1CCc1ccccc1`, the EC50 in data set [6] and in [7] was > 300 µM (not active) throughout. The figures for the AC50 in data set [8] and in data set [9] were 25.2 µM (active) and 10.5 µM (active), respectively.

Take `O=[N+]([O-])c1cccc(SSc2cccc([N+](=O)[O-])c2)c1`: the IC50 in data set [13] is > 80 µM (inactive); in data set [15] it was 1.62 µM (active); in [16] it was 3.73 µM (active); in data set [18] it was 53.9 µM (active). For the same compound, in [14], the AC50 is 4.25 µM (active). In addition, in data set [17], the CC50 is 100 µM (active).

With `CCCCCNC(=O)C(c1ccc(C(F)(F)F)cc1)n1c(=O)c(-c2ccco2)nc2ccccc21` (configuration not stated), the IC50 in data set [19] was 2.85 µM (active).

As for `O=c1cc[nH]c(=O)[nH]1` [URACIL], the GI50 in [20] was 292 µM (inactive); in data set [21], 315 µM (inactive); in data set [22], 164 µM (inactive).

(Values after ChEMBL document CHEMBL1201862, “PubChem BioAssay data set” (2004).)
